Results: patent publication US10295551B2, “Development and use of fluorescent probes of unbound bilirubin” (Alan Marc Kleinfeld, priority 2011, dated 2019)

How the values were obtained:
[1] = molecular target: T1, rI-FABP (SEQ ID NO: 3) variant ADIFAB2, 72A (Rattus norvegicus, UniProt P02693, L73A); test: fatty acid binding to ADIFAB2
T1 construct: 6xHis (C)
From the text: (§1) The major (>75%) FFA species generated from Intralipid® are linoleic, oleic, palmitic and linolenic FFA. Because ADIFAB2 is most specific for stearic acid, for which Intralipid® contains only between 1.5 and 5.5%, FFAu probes with specificity for linoleic, oleic, palmitic and linolenic FFA will provide more accurate and sensitive detection of the rise in plasma FFAu due to Intralipid® hydrolysis. Such FFAu probes have been produced (Table 10) using the methods described in U.S. Pat. No. 7,601,510 and U.S. publication 2010/0298162 and in [Huber A H, Kampf J P, Kwan T, Zhu B and Kleinfeld A M. Fatty acid-specific fluorescent probes and their use in resolving mixtures of different unbound free fatty acids in equilibrium with albumin. Biochemistry 45: 14263-14274, 2006]. Sensitive FFAu probes are necessary for detecting the rise in the patient's FFAu levels, early in the titration of Intralipid®, which is critical for the prevention of unbound bilirubin and FFAu from reaching toxic levels.

[2] = molecular target: T2, rI-FABP (SEQ ID NO: 3) variant L19CP10C7, MGI-14R 18L 27C 71I 73F 117D (Rattus norvegicus, UniProt P02693, A74F/K28C/L73A/M19L/S72I/Y118D/Y15R); test: fatty acid binding to L19CP10C7
T2 construct: 6xHis (C); made in house
T2 sequence (P02693 with tags, fused parts or gaps Y15R/M19L/K28C/S72I/L73A/A74F/Y118D): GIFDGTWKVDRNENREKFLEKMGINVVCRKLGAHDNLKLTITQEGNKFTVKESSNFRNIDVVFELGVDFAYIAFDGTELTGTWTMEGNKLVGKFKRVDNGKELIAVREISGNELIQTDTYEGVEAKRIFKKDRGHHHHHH
From the text: as §1

[3] = molecular target: T3, rI-FABP (SEQ ID NO: 3) variant L138P1H8 N24C, MGI-18L 21L 23Y 24C 31I 55V 72S 73S 74G 76V 117H 128Y (Rattus norvegicus, UniProt P02693, A74S/D75G/F129Y/F56V/G32I/I24Y/L73S/M19L/M22L/N25C/T77V/Y118H); test: fatty acid binding to L138P1H8N24C
T3 construct: 6xHis (C); made in house
T3 sequence (P02693 with tags, fused parts or gaps with the stated changes): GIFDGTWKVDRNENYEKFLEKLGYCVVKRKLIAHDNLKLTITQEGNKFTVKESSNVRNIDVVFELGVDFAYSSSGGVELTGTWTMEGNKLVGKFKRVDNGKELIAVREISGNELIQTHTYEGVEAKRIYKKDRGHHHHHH
From the text: as §1

[4] = molecular target: T4, rI-FABP (SEQ ID NO: 3) variant L22P5E11, 38R 69T 72A 73K 106A (Rattus norvegicus, UniProt P02693, A70T/A74K/L39R/L73A/R107A); test: fatty acid binding to L22P5E11
T4 construct: 6xHis (C); made in house
T4 sequence (P02693 with tags, fused parts or gaps L39R/A70T/L73A/A74K/R107A): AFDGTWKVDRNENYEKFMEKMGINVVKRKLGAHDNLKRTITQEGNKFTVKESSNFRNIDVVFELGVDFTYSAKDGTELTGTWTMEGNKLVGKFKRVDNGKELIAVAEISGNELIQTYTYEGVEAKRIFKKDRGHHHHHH
From the text: as §1

[5] = molecular target: T5, rI-FABP (SEQ ID NO: 3) variant L61P8 B12, 8I 14L 18L 23L 27Y 30C 31V 53I 55W 72G 73T 74A 78V 82V 91Y 93M 102V 106W 115W 117L (Rattus norvegicus, UniProt P02693, A74T/D75A/F56W/F94M/G32V/G92Y/I24L/K28Y/L103V/L31C/L73G/L79V/M19L/Q116W/R107W/S54I/V9I/W83V/Y118L/Y15L); test: fatty acid binding to L61P8B12
T5 construct: 6xHis (C); made in house
T5 sequence (P02693 with tags, fused parts or gaps with the stated changes): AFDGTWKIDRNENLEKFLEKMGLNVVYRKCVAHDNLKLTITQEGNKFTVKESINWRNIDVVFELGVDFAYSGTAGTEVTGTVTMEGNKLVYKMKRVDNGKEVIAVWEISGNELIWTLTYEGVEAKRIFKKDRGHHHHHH
From the text: as §1

[6] = molecular target: rI-FABP (SEQ ID NO: 3) variant L4BP4B9, 73W 74S (Rattus norvegicus, UniProt P02693, A74W/D75S/L73A); test: fatty acid binding to L4BP4B9
Sequence of rI-FABP (SEQ ID NO: 3) variant L4BP4B9, 73W 74S (P02693 with tags, fused parts or gaps L73A/A74W/D75S): as the sequence (P02693 with tags, fused parts or gaps L39R/A70T/L73A/A74K/R107A) above, with R38L, T69A, K73W, D74S, A106R counted along it
From the text: as §1

[7] = molecular target: T6, rI-FABP (SEQ ID NO: 3) variant L119P3E5, 18V 27C 31A 72A 73W (Rattus norvegicus, UniProt P02693, A74W/G32A/K28C/L73A/M19V); test: fatty acid binding to L119P3E5
T6 construct: 6xHis (C); made in house
T6 sequence (P02693 with tags, fused parts or gaps M19V/K28C/G32A/L73A/A74W): as the sequence (P02693 with tags, fused parts or gaps L39R/A70T/L73A/A74K/R107A) above, with M18V, K27C, G31A, R38L, T69A, K73W, A106R counted along it
From the text: as §1

[8] = molecular target: T7, human albumin (Homo sapiens, UniProt P02768); test: Bilirubin binding to a single human albumin site (bilirubin spiked plasma); settings: prediction in good agreement with measured [Bf] in spiked pooled human plasma
T7 construct: Pooled human plasma (Golden West Biologicals) for which [albumin] was 620 μM was spiked with bilirubin; tissue Golden West Biologicals; host or cells: pooled human plasma
T7 sequence (P02768 25-609): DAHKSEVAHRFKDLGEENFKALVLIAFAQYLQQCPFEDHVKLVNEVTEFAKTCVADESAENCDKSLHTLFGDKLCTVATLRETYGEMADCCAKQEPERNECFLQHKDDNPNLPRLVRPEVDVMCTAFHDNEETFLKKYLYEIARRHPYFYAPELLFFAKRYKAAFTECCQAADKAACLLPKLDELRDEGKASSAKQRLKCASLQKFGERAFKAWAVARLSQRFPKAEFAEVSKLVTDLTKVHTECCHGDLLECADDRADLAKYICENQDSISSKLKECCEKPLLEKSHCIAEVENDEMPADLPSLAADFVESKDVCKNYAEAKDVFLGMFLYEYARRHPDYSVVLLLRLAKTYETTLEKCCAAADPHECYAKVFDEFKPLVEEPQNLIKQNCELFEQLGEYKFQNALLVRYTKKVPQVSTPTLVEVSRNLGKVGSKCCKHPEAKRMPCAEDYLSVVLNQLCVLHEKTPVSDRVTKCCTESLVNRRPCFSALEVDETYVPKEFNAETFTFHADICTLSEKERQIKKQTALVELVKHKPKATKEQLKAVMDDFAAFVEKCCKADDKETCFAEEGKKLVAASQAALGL
Experimental: Pooled human plasma (Golden West Biologicals) for which [albumin] was 620 μM was spiked with bilirubin to generate plasma samples with bilirubin/albumin ratios from of approximately 0 to 0.9. Measurements of [Bf] were carried out using BL22P1B1-Rh in either a Fluorolog3 (JY Horiba) using 10×10 mm cuvettes or in a FFAu Meter (FFA Sciences) modified for measuring unbound bilirubin by replacing emission filters with ones centered at […]. Measurements of [Bf] were also performed on the same samples using the peroxidase method of Jacobsen and Wennberg [Jacobsen J and Wennberg R P. Determination of unbound bilirubin in the serum of newborns. Clin Chem 20: 783, 1974].

T1 sequence (P02693 with tags, fused parts or gaps L73A): as the sequence (P02693 with tags, fused parts or gaps L39R/A70T/L73A/A74K/R107A) above, with R38L, T69A, K73A, A106R counted along it

Compound: CCCCCCCC/C=C\CCCCCCCC(=O)O [Oleate 18:1 (n-9), Oleate]
- Kd [1]: 21.5 nM
- Kd [2]: 1.2 nM
- Kd [3]: 7.6 nM
- Kd [4]: 3.1 nM
- Kd [5]: 4.3 nM
- Kd [6]: 18.9 nM
- Kd [7]: 12.7 nM

Compound: CCCCC/C=C\C/C=C\CCCCCCCC(=O)O [Linoleate 18:2 (n-6), Linoleate]
- Kd [1]: 105 nM
- Kd [2]: 0.8 nM
- Kd [3]: 6.5 nM
- Kd [4]: 6.7 nM
- Kd [5]: 25.7 nM
- Kd [6]: 40.8 nM
- Kd [7]: 23 nM

Compound: C=CC1=C(C)/C(=C/c2[nH]c(Cc3[nH]c(/C=C4\NC(=O)C(C)=C4C=C)c(C)c3CCC(=O)O)c(CCC(=O)O)c2C)NC1=O [Bilirubin, unconjugated bilirubin IXα]
- Kd [8]: 20 nM
